Data on 1 compound can be found in PubChem BioAssay AID504628 (Vanderbilt High Throughput Screening Facility, 2011).

This assay deals with Voltage-dependent T-type calcium channel subunit alpha-1H (Homo sapiens) (UniProt O95180). Kind of assay: electrophysiology of T-type channel inhibitors – HEK293 cells, whole-cell recording, orthogonal assay for T-type calcium channel inhibitor project, late-stage follow-up (AID 504628). The note with it: HEK293-Cav3.2 whole-cell patch clamp, Ba2+ current; at 1 µM. In general terms: In patch-clamp work, channel activity is measured electrically.
Sequence of Voltage-dependent T-type calcium channel subunit alpha-1H (Homo sapiens) (O95180 whole entry, looked up): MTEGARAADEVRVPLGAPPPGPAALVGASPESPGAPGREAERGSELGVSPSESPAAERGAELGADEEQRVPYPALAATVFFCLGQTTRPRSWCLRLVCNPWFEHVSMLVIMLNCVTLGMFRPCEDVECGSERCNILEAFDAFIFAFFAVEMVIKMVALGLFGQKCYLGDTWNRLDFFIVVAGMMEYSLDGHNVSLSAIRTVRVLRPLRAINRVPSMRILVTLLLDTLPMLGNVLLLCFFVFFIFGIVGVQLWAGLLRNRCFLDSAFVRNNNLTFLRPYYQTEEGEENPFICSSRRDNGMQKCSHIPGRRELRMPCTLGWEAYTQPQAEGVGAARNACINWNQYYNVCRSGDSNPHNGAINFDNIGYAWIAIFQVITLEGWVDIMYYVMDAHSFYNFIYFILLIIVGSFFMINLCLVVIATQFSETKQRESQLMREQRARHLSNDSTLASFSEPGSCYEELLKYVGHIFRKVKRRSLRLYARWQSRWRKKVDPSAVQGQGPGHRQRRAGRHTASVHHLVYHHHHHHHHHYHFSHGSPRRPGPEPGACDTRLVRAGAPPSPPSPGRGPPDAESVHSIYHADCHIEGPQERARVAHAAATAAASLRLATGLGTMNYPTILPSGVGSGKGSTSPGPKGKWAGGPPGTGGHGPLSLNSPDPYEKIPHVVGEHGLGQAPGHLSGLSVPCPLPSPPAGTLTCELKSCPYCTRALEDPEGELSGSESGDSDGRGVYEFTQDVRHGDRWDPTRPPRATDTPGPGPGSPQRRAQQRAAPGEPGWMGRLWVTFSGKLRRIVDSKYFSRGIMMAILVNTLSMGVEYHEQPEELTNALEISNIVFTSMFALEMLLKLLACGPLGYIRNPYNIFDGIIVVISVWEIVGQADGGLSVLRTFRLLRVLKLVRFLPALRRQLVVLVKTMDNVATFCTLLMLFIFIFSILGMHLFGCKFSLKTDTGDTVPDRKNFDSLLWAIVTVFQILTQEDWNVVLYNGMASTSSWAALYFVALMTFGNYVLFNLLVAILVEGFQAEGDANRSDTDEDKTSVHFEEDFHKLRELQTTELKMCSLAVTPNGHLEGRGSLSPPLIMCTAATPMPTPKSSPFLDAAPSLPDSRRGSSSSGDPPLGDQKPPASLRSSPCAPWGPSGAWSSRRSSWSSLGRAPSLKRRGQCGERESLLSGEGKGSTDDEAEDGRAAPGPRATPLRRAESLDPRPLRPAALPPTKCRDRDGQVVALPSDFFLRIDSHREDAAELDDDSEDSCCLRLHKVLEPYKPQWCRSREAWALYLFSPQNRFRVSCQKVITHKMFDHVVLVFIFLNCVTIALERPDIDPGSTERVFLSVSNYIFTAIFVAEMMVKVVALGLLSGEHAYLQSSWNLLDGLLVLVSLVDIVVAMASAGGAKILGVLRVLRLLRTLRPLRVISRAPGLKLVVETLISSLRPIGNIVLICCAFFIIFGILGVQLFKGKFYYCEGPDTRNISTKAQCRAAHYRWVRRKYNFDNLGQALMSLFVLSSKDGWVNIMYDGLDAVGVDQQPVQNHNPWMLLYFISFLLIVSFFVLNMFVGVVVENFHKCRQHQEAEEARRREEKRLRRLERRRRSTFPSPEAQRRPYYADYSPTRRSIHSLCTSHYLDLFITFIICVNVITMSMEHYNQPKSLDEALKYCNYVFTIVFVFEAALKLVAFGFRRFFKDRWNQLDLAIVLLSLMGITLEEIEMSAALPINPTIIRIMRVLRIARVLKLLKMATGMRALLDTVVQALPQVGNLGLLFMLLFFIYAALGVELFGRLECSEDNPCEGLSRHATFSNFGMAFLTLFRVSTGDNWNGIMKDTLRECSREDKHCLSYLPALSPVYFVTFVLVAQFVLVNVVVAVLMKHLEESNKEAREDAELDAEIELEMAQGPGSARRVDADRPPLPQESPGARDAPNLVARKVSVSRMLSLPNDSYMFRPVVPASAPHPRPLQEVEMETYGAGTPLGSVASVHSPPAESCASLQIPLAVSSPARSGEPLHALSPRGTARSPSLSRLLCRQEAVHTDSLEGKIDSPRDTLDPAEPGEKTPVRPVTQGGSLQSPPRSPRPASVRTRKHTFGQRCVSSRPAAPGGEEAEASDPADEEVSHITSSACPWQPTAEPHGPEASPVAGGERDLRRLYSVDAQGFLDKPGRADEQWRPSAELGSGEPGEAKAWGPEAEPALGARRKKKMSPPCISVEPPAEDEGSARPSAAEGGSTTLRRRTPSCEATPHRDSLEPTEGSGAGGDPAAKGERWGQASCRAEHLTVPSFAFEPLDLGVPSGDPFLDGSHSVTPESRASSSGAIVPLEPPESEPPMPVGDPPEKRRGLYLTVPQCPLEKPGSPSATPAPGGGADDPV

`CC(C)(C)CCN1C[C@@H]2C(CNC(=O)c3cc(Cl)cc(Cl)c3)[C@@H]2C1` (stereo partly specified): the current is -1010 pA.
